Laboratory results from US20210101881A1 (Ancureall Pharmaceutical (Shanghai) Co., Ltd., priority 2018, published 2021).
Read-outs that look alike come from different tables or passages of the source.

Key:
MOLM13 cells = test: Growth inhibition of CDK9-positive cell line MOLM13 in vitro (CCK8/MTT assay); assay type: cell-based, human; settings: Homo sapiens
CDK9/CyclinK kinase = molecular target: T1, CDK9/CyclinK kinase (Homo sapiens, UniProt P50750); test: CDK9 protein kinase activity, ADP-Glo CDK9/CyclinK kinase detection kit; assay type: biochemical; settings: read-out: IC50 of the compound for inhibiting CDK9 protein kinase activity, CDK9/CyclinK kinase
T1 construct: purchased Promega Corporation V4105
T1 sequence (P50750 whole entry): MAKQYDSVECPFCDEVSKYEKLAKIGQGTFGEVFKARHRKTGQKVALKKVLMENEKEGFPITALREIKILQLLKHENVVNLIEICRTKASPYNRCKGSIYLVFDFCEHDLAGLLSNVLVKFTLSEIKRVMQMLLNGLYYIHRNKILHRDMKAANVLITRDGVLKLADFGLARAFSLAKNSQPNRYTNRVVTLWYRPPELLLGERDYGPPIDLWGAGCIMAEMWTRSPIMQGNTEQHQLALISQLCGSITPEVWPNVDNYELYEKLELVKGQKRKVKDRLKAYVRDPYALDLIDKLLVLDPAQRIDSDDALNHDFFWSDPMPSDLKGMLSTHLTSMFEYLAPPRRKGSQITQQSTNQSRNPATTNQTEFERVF
T1 sequence (O75909 whole entry partner): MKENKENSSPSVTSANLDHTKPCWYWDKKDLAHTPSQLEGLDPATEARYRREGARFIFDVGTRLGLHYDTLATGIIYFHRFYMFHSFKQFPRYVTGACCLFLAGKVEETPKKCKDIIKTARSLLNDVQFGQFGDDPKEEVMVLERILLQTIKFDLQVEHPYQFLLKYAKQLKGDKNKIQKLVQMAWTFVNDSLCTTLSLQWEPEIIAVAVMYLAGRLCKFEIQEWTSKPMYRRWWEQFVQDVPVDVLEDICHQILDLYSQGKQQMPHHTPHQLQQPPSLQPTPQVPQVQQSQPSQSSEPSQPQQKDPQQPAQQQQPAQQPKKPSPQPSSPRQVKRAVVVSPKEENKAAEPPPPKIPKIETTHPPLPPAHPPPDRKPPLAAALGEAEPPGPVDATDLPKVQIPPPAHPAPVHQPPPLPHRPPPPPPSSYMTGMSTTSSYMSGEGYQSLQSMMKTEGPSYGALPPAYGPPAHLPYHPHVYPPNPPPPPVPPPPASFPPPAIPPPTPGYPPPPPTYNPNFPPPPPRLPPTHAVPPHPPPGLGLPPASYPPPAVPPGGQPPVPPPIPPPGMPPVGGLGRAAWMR
Procedure: Measurement of CDK9 Protein Kinase Activity
The present compound was dissolved in DMSO (Sigma Aldrich), and the initial concentration of the compound was 1000 nM. A two-fold serial dilution was carried out. The specific operation of CDK9 kinase activity determination was carried out according to the ADP-Go™ CDK9/CyclinK kinase detection experimental procedure. […] Each test sample was tested in duplicate, and the test was repeated once. The inhibitory activity (IC50) of the compound on CDK9 protein kinase was calculated from the dose-inhibition curve of the compound.

AGS = test: Growth inhibition of CDK9-positive tumor cell line in vitro; assay type: cell-based; settings: Human stomach cancer, read-out: Inhibitory activity (IC50) on growth in vitro, AGS
Procedure: (§1) Measurement of the Inhibitory Activity of the Present Compound on the Growth of Various Types of CDK9-Positive Tumor Cell Lines In Vitro
(§2) The inventors selected representative CDK9-positive tumor cell lines for further determination of the compound activity. All cell lines used came from ATCC, JCRB, DSMZ and Chinese Academy of Sciences Cell Bank (ZK). Cell culture condition and method were based on the requirements of each cell line. No more than 3 passages were carried out in each culture in vitro. Monoclonal purification and STR identification of the cell line were conducted if necessary.

Kasumi-1 = test: as above; assay type: cell-based; settings: Human acute myeloid leukemia, read-out: Inhibitory activity (IC50) on growth in vitro, Kasumi-1
Procedure: as §1, §2

HuCCT-1 = test: as above; assay type: cell-based; settings: Human cholangiocarcinoma, read-out: Inhibitory activity (IC50) on growth in vitro, HuCCT-1
Procedure: as §1, §2

HO8910PM = test: as above; assay type: cell-based; settings: Human ovarian cancer, read-out: Inhibitory activity (IC50) on growth in vitro, HO8910PM
Procedure: as §1, §2

SK-MEL-28 = test: as above; assay type: cell-based; settings: Human melanoma, read-out: Inhibitory activity (IC50) on growth in vitro, SK-MEL-28
Procedure: as §1, §2

NCI-H358 = test: as above; assay type: cell-based; settings: Human lung cancer, read-out: Inhibitory activity (IC50) on growth in vitro, NCI-H358
Procedure: as §1, §2

CAL-120 = test: as above; assay type: cell-based; settings: Human breast cancer, read-out: Inhibitory activity (IC50) on growth in vitro, CAL-120
Procedure: as §1, §2

A375 = test: as above; assay type: cell-based; settings: A-375, Human melanoma, read-out: Inhibitory activity (IC50) on growth in vitro, A375
Procedure: as §1, §2

TPC-1 = test: as above; assay type: cell-based; settings: TPC1, Human thyroid cancer, read-out: Inhibitory activity (IC50) on growth in vitro, TPC-1
Procedure: as §1, §2

MX-1 = test: as above; assay type: cell-based; settings: MX1, Human breast cancer, read-out: Inhibitory activity (IC50) on growth in vitro, MX-1
Procedure: as §1, §2

HCC1954 = test: as above; assay type: cell-based; settings: Human breast cancer, read-out: Inhibitory activity (IC50) on growth in vitro, HCC1954
Procedure: as §1, §2

NCI-H1703 = test: as above; assay type: cell-based; settings: Human lung cancer, read-out: Inhibitory activity (IC50) on growth in vitro, NCI-H1703
Procedure: as §1, §2

KHM-5M = test: as above; assay type: cell-based; settings: read-out: Inhibitory activity (IC50) on growth in vitro, Human thyroid cancer
Procedure: as §1, §2

DU-145 = test: as above; assay type: cell-based; settings: Human prostate cancer, read-out: Inhibitory activity (IC50) on growth in vitro, DU-145
Procedure: as §1, §2

SK-BR-3 = test: as above; assay type: cell-based; settings: Human breast cancer, read-out: Inhibitory activity (IC50) on growth in vitro, SK-BR-3
Procedure: as §1, §2

NCI-H1975 = test: as above; assay type: cell-based; settings: Human lung cancer, read-out: Inhibitory activity (IC50) on growth in vitro, NCI-H1975
Procedure: as §1, §2

Pfeiffer = test: as above; assay type: cell-based; settings: Human B lymphocyte tumor, read-out: Inhibitory activity (IC50) on growth in vitro, Pfeiffer
Procedure: as §1, §2

MDA-MB-453 = test: as above; assay type: cell-based; settings: Human breast cancer, read-out: Inhibitory activity (IC50) on growth in vitro, MDA-MB-453
Procedure: as §1, §2

MDA-MB-231 = test: as above; assay type: cell-based; settings: Human breast cancer, read-out: Inhibitory activity (IC50) on growth in vitro, MDA-MB-231
Procedure: as §1, §2

MDA-MB-436 = test: as above; assay type: cell-based; settings: Human breast cancer, read-out: Inhibitory activity (IC50) on growth in vitro, MDA-MB-436
Procedure: as §1, §2

[1] = MOLM-13, MOLM13 cells, cultured 3 to 6 days, CCK8, read-out: IC50 of the compound for inhibiting cell growth, MOLM13 cells

Q: Which IC50 (MOLM13 cells; [1]) does the source give for `Cc1cc(Nc2ncc(Cl)c(-n3cc(C(N)=O)c4ccccc43)n2)ccc1N1CCN(C(C)C)CC1` [Compound 60, 1-{5-chloro-2-[4-(4-isopropyl-piperazin-1-yl)-3-methyl-phenylamino]-pyrimidin-4-yl}-1H-indole-3-carboxamide] here?
A: < 1 nM

Q: And the IC50 (CDK9/CyclinK kinase)?
A: 1 to 10 nM

Q: What about the IC50 (AGS) of the same compound?
A: 100 to 1000 nM

Q: And the IC50 (Kasumi-1)?
A: 1 to 10 nM

Q: And the IC50 (HuCCT-1)?
A: 100 to 1000 nM

Q: And the IC50 (HO8910PM)?
A: 10 to 100 nM

Q: What about the IC50 (SK-MEL-28) of the same compound?
A: 100 to 1000 nM

Q: And the IC50 (NCI-H358)?
A: 100 to 1000 nM

Q: What about the IC50 (CAL-120) of the same compound?
A: 1 to 10 nM

Q: And the IC50 (A375)?
A: 100 to 1000 nM

Q: What about the IC50 (TPC-1) of the same compound?
A: 10 to 100 nM

Q: And the IC50 (MX-1)?
A: 1 to 10 nM

Q: And the IC50 (HCC1954)?
A: 1 to 10 nM

Q: What about the IC50 (NCI-H1703) of the same compound?
A: 10 to 100 nM

Q: And the IC50 (KHM-5M)?
A: 10 to 100 nM

Q: What about the IC50 (DU-145) of the same compound?
A: 10 to 100 nM

Q: And the IC50 (SK-BR-3)?
A: 1 to 10 nM

Q: What about the IC50 (NCI-H1975) of the same compound?
A: 100 to 1000 nM

Q: What about the IC50 (Pfeiffer) of the same compound?
A: 10 to 100 nM

Q: For `NC(=O)c1cn(-c2nc(Nc3cccc(N4CCN(C5CCOCC5)CC4)c3)ncc2F)c2ccccc12` [Compound 140, 1-(5-fluoro-2-{3-[4-(tetrahydro-pyran-4-yl)-piperazin-1-yl]-phenylamino}-pyrimidin-4-yl)-1H-indole-3-carboxamide], which IC50 (MOLM13 cells; [1]) is on record?
A: < 1 nM

Q: What about the IC50 (AGS) of the same compound?
A: 1 to 10 nM

Q: And the IC50 (Kasumi-1)?
A: 1 to 10 nM

Q: What about the IC50 (HuCCT-1) of the same compound?
A: 1 to 10 nM

Q: What about the IC50 (HO8910PM) of the same compound?
A: < 1 nM

Q: What about the IC50 (SK-MEL-28) of the same compound?
A: 1 to 10 nM

Q: And the IC50 (MDA-MB-453)?
A: < 1 nM

Q: And the IC50 (MDA-MB-231)?
A: < 1 nM

Q: And the IC50 (NCI-H358)?
A: 1 to 10 nM

Q: And the IC50 (CAL-120)?
A: < 1 nM

Q: What about the IC50 (A375) of the same compound?
A: 1 to 10 nM

Q: And the IC50 (MDA-MB-436)?
A: < 1 nM

Q: And the IC50 (TPC-1)?
A: < 1 nM

Q: What about the IC50 (MX-1) of the same compound?
A: < 1 nM

Q: What about the IC50 (HCC1954) of the same compound?
A: < 1 nM

Q: What about the IC50 (NCI-H1703) of the same compound?
A: < 1 nM

Q: And the IC50 (KHM-5M)?
A: < 1 nM

Q: And the IC50 (DU-145)?
A: < 1 nM

Q: What about the IC50 (SK-BR-3) of the same compound?
A: < 1 nM

Q: What about the IC50 (NCI-H1975) of the same compound?
A: 1 to 10 nM

Q: And the IC50 (Pfeiffer)?
A: < 1 nM

Q: Which results are given for `CC(C)N1CCN(c2cccc(Nc3ncc(F)c(-n4cc(C(N)=O)c5ccccc54)n3)c2)CC1` [Compound 144, 1-{5-fluoro-2-[3-(4-isopropyl-piperazin-1-yl)-phenylamino]-pyrimidin-4-yl}-1H-indole-3-carboxamide]?
A: IC50 (MOLM13 cells; [1]): < 1 nM; IC50 (AGS): 1 to 10 nM; IC50 (Kasumi-1): < 1 nM; IC50 (HuCCT-1): 1 to 10 nM; IC50 (HO8910PM): < 1 nM; IC50 (SK-MEL-28): 1 to 10 nM; IC50 (MDA-MB-453): < 1 nM; IC50 (MDA-MB-231): < 1 nM; IC50 (NCI-H358): 1 to 10 nM; IC50 (CAL-120): < 1 nM; IC50 (A375): 1 to 10 nM; IC50 (MDA-MB-436): < 1 nM; IC50 (TPC-1): < 1 nM; IC50 (MX-1): < 1 nM; IC50 (HCC1954): < 1 nM; IC50 (NCI-H1703): < 1 nM; IC50 (KHM-5M): < 1 nM; IC50 (DU-145): < 1 nM; IC50 (SK-BR-3): < 1 nM; IC50 (NCI-H1975): 1 to 10 nM; IC50 (Pfeiffer): < 1 nM

Q: `CCN1CCN(c2cccc(Nc3ncc(F)c(-n4cc(C(N)=O)c5cc(OC)ccc54)n3)c2)CC1` [Compound 152, 1-{2-[3-(4-ethyl-piperazin-1-yl)-phenylamino]-5-fluoro-pyrimidin-4-yl}-5-methoxy-1H-indole-3-carboxamide] was tested. Which IC50 (MOLM13 cells; MOLM-13, read-out: IC50 of the compound for inhibiting cell growth, MOLM13 cells) did it give?
A: < 1 nM

Q: What about the IC50 (CDK9/CyclinK kinase) of the same compound?
A: < 1 nM

Q: And the IC50 (AGS)?
A: 1 to 10 nM

Q: And the IC50 (Kasumi-1)?
A: 1 to 10 nM

Q: And the IC50 (HuCCT-1)?
A: 1 to 10 nM

Q: What about the IC50 (HO8910PM) of the same compound?
A: < 1 nM

Q: And the IC50 (SK-MEL-28)?
A: 1 to 10 nM

Q: And the IC50 (MDA-MB-453)?
A: < 1 nM

Q: And the IC50 (MDA-MB-231)?
A: < 1 nM

Q: And the IC50 (NCI-H358)?
A: 1 to 10 nM

Q: What about the IC50 (CAL-120) of the same compound?
A: < 1 nM

Q: And the IC50 (A375)?
A: 1 to 10 nM

Q: And the IC50 (MDA-MB-436)?
A: < 1 nM

Q: What about the IC50 (TPC-1) of the same compound?
A: 1 to 10 nM

Q: And the IC50 (MX-1)?
A: < 1 nM

Q: And the IC50 (HCC1954)?
A: < 1 nM

Q: And the IC50 (NCI-H1703)?
A: < 1 nM

Q: And the IC50 (KHM-5M)?
A: 1 to 10 nM

Q: And the IC50 (DU-145)?
A: 1 to 10 nM

Q: What about the IC50 (SK-BR-3) of the same compound?
A: < 1 nM

Q: What about the IC50 (NCI-H1975) of the same compound?
A: 1 to 10 nM

Q: What about the IC50 (Pfeiffer) of the same compound?
A: < 1 nM

Q: What does the source list for `CCN1CCN(c2cccc(Nc3ncc(F)c(-n4cc(C(N)=O)c5cc(F)ccc54)n3)c2)CC1` [Compound 161, 1-{2-[3-(4-ethyl-piperazin-1-yl)-phenylamino]-5-fluoro-pyrimidin-4-yl}-5-fluoro-1H-indole-3-carboxamide]?
A: IC50 (MOLM13 cells; [1]): < 1 nM; IC50 (CDK9/CyclinK kinase): < 1 nM; IC50 (AGS): 1 to 10 nM; IC50 (Kasumi-1): 1 to 10 nM; IC50 (HuCCT-1): 1 to 10 nM; IC50 (HO8910PM): < 1 nM; IC50 (SK-MEL-28): 1 to 10 nM; IC50 (MDA-MB-453): < 1 nM; IC50 (MDA-MB-231): < 1 nM; IC50 (NCI-H358): 1 to 10 nM; IC50 (CAL-120): < 1 nM; IC50 (A375): 1 to 10 nM; IC50 (MDA-MB-436): < 1 nM; IC50 (TPC-1): 1 to 10 nM; IC50 (MX-1): < 1 nM; IC50 (HCC1954): < 1 nM; IC50 (NCI-H1703): < 1 nM; IC50 (KHM-5M): 1 to 10 nM; IC50 (DU-145): 1 to 10 nM; IC50 (SK-BR-3): < 1 nM; IC50 (NCI-H1975): 1 to 10 nM; IC50 (Pfeiffer): < 1 nM
